In US7569578B2, “Heterocyclic anti-migraine agents” (Bristol-Meyers Squibb Company, priority 2003, dated 2009):

molecular target: T1, Human CGRP1 Receptor (Homo sapiens, UniProt O60894+Q16602); test: CGRP Binding Assay ([125I]-CGRP radioligand displacement, SK-N-MC membrane homogenate); conditions: [125I]-CGRP displacement, SK-N-MC homogenate, room temperature 2 h; read-out: Human CGRP1 Receptor IC50
T1 construct: endogenous in cells; host or cells: SK-N-MC cells (membrane homogenate)
Description: Tissue Culture. SK-N-MC cells were grown at 37° C. in 5% CO2 as a monolayer in medium consisting of MEM with Earle's salts and L-glutamine (Gibco) supplemented with 10% fetal bovine serum (Gibco).
Cell Pellets. […] The cells were transferred from plates to polypropylene tubes (16×100 mm) and homogenized using a polytron. Homogenates were centrifuged at 32,000×g for 30 min. The pellets were resuspended in cold hypotonic lysis buffer with 0.1% mammalian protease inhibitor cocktail (Sigma) and assayed for protein concentration. The SK-N-MC homogenate was then aliquoted and stored at −80° C. until needed.
Radioligand Binding Assay. The compounds of invention were solubilized and carried through serial dilutions using 100% DMSO. Aliquots from the compound serial dilutions were further diluted 25 fold into assay buffer (50 mM Tris-Cl pH 7.5, 5 mM MgCl2, 0.005% Triton X-100) and transferred (volume 50 μl) into 96 well assay plates. […] SK-N-MC pellets were thawed, diluted in assay buffer with fresh 0.1% mammalian protease inhibitor cocktail (Sigma), and homogenized again. SK-N-MC homogenate (5 μg/well) was added in a volume of 100 μl. The assay plates were then incubated at room temperature for 2 h. Assays were stopped by addition of excess cold wash buffer (20 mM Tris-Cl pH 7.5, 0.1% BSA) immediately followed by filtration over glass fiber filters (Whatman GF/B) previously soaked in 0.5% PEI. Non-specific binding was defined with 1 μM beta-CGRP. Protein bound radioactivity was determined using a gamma or scintillation counter.

T1 sequence (Q16602 23-461): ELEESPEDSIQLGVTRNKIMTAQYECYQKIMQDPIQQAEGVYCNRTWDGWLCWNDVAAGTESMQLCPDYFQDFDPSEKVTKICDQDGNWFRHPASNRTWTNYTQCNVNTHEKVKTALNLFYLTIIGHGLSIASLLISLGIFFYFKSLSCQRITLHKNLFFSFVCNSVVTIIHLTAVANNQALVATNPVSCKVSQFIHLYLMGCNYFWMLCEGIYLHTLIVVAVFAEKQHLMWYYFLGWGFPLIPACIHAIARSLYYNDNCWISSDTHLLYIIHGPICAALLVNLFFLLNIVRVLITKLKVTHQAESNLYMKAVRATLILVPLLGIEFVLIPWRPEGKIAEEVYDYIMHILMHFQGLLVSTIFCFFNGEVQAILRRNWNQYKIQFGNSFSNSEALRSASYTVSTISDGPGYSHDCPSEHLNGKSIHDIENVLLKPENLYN
T1 sequence (O60894 27-148): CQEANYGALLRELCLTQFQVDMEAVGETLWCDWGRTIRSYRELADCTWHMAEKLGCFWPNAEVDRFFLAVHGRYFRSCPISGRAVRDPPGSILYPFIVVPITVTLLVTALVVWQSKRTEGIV

| IC50 [µM] | Compound |
| --- | --- |
| < 0.01 | Cc1cc(CC(CC(=O)N2CCC(N3Cc4ccccc4NC3=O)CC2)c2ccccn2)cc2cn[nH]c12 (racemic) [Example 1, (±)-3-{1-[4-(7-Methyl-1H-indazol-5-yl)-3-pyridin-2-yl-butyryl]-piperidin-4-yl}-3,4-dihydro-1H-quinazolin-2-one] |
| < 0.01 | Cc1cc(CC(CC(=O)N2CCC(N3Cc4ccccc4NC3=O)CC2)c2nc(Cc3ccccc3)no2)cc2cn[nH]c12 (racemic) [Example 2, (±)-3-{1-[3-(3-Benzyl-[1,2,4]oxadiazol-5-yl)-4-(7-methyl-1H-indazol-5-yl)-butyryl]-piperidin-4-yl}-3,4-dihydro-1H-quinazolin-2-one] |
| 0.01 to 0.1 | Cc1cc(CC(CC(=O)N2CCC(N3Cc4ccccc4NC3=O)CC2)c2nc(CN3CCCCC3)no2)cc2cn[nH]c12 (racemic) [Example 3, (±)-3-{1-[4-(7-Methyl-1H-indazol-5-yl)-3-(3-piperidin-1-ylmethyl [1,2,4]oxadiazol-5-yl)-butyryl]-piperidin-4-yl}-3,4-dihydro-1H-quinazolin-2-one] |
| 0.01 to 0.1 | Cc1cc(CC(CC(=O)N2CCC(N3Cc4ccccc4NC3=O)CC2)c2nc(-c3ccccc3)no2)cc2cn[nH]c12 (racemic) [Example 4, (±)-3-{1-[4-(7-Methyl-1H-indazol-5-yl)-3-(3-phenyl-[1,2,4]oxadiazol-5-yl)-butyryl]-piperidin-4-yl}-3,4-dihydro-1H-quinazolin-2-one] |
| 0.01 to 0.1 | Cc1noc(C(CC(=O)N2CCC(N3Cc4ccccc4NC3=O)CC2)Cc2cc(C)c3[nH]ncc3c2)n1 (racemic) [Example 5, (±)-3-{1-[4-(7-Methyl-1H-indazol-5-yl)-3-(3-methyl-[1,2,4]oxadiazol-5-yl)-butyryl]-piperidin-4-yl}-3,4-dihydro-1H-quinazolin-2-one] |
| 0.01 to 0.1 | Cc1cc(CC(CC(=O)N2CCC(N3Cc4ccccc4NC3=O)CC2)c2nc(Cc3ccncc3)no2)cc2cn[nH]c12 (racemic) [Example 6, (±)-3-{1-[4-(7-Methyl-1H-indazol-5-yl)-3-(3-pyridin-4-ylmethyl-[1,2,4]oxadiazol-5-yl)-butyryl]-piperidin-4-yl}-3,4-dihydro-1H-quinazolin-2-one] |
| 0.01 to 0.1 | Cc1cc(CC(CC(=O)N2CCC(N3Cc4ccccc4NC3=O)CC2)c2nc(CN(C)C)no2)cc2cn[nH]c12 (racemic) [Example 7, (±)-3-{1-[3-(3-Dimethylaminomethyl-[1,2,4]oxadiazol-5-yl)-4-(7-methyl-1H-indazol-5-yl)-butyryl]-piperidin-4-yl}-3,4-dihydro-1H-quinazolin-2-one] |
| 0.01 to 0.1 | Cc1cc(CC(CC(=O)N2CCC3(CC2)OC(=O)Nc2ccccc23)c2nc(Cc3ccccc3)no2)cc2cn[nH]c12 (racemic) [Example 8, (±)-3-{1-[3-(3-Benzyl-[1,2,4]oxadiazol-5-yl)-4-(7-methyl-1H-indazol-5-yl)-butyryl]-4,4′-piperidinyl}-1′,2′-dihydro-2′-oxospiro-[4H-3′,1-benzoxazine] |
| 0.1 to 1 | Cc1noc(C(CC(=O)N2CCC3(CC2)OC(=O)Nc2ccccc23)Cc2cc(C)c3[nH]ncc3c2)n1 (racemic) [Example 9, (±)-3-{1-[3-(3-Methyl-[1,2,4]oxadiazol-5-yl)-4-(7-methyl-1H-indazol-5-yl)-butyryl]-4,4′-piperidinyl}-1′,2′-dihydro-2′-oxospiro-[4H-3′,1-benzoxazine] |
| < 0.01 | Cc1cc(CC(NC(=O)N2CCC(N3Cc4ccccc4NC3=O)CC2)c2nc(Cc3ccccc3)no2)cc2cn[nH]c12 (racemic) [Example 10, (±)-4-(2-Oxo-1,4-dihydro-2H-quinazolin-3-yl)-piperidine-1-carboxylic acid [1-(3-benzyl-[1,2,4]oxadiazol-5-yl)-2-(7-methyl-1H-indazol-5-yl)-ethyl]-amide] |
| 0.01 to 0.1 | Cc1noc(C(Cc2cc(C)c3[nH]ncc3c2)NC(=O)N2CCC(N3Cc4ccccc4NC3=O)CC2)n1 (racemic) [Example 11, (±)-4-(2-Oxo-1,4-dihydro-2H-quinazolin-3-yl)-piperidine-1-carboxylic acid [2-(7-methyl-1H-indazol-5-yl)-1-(3-methyl-[1,2,4]oxadiazol-5-yl)-ethyl]-amide] |
| 0.01 to 0.1 | Cc1cc(CC(NC(=O)N2CCC(N3Cc4ccccc4NC3=O)CC2)c2nc(Cc3ccncc3)no2)cc2cn[nH]c12 (racemic) [Example 12, (±)-4-(2-Oxo-1,4-dihydro-2H-quinazolin-3-yl)-piperidine-1-carboxylic acid [2-(7-methyl-1H-indazol-5-yl)-1-(3-pyridin-4-ylmethyl-[1,2,4]oxadiazol-5-yl)-ethyl]-amide] |
| 0.1 to 1 | Cc1cc(CC(NC(=O)N2CCC(N3Cc4ccccc4NC3=O)CC2)c2nc(CN(C)C)no2)cc2cn[nH]c12 (racemic) [Example 13, (±)-4-(2-Oxo-1,4-dihydro-2H-quinazolin-3-yl)-piperidine-1-carboxylic acid [1-(3-dimethylaminomethyl-[1,2,4]oxadiazol-5-yl)-2-(7-methyl-1H-indazol-5-yl)-ethyl]-amide] |
| 0.1 to 1 | CCc1cc(CC(NC(=O)N2CCC(N3Cc4ccccc4NC3=O)CC2)c2nnn[nH]2)cc2c(C)n[nH]c12 (racemic) [Example 14, (±)-4-(2-Oxo-1,4-dihydro-2H-quinazolin-3-yl)-piperidine-1-carboxylic acid [2-(7-ethyl-3-methyl-1H-indazol-5-yl)-1-(1H-tetrazol-5-yl)-ethyl]-amide] |
| 0.01 to 0.1 | CCc1cc(CC(NC(=O)N2CCC(N3Cc4ccccc4NC3=O)CC2)c2nnn(CCc3ccccc3)n2)cc2c(C)n[nH]c12 (racemic) [Example 16, (±)-4-(2-Oxo-1,4-dihydro-2H-quinazolin-3-yl)-piperidine-1-carboxylic acid [2-(7-ethyl-3-methyl-1H-indazol-5-yl)-1-(2-phenethyl-2H-tetrazol-5-yl)-ethyl]-amide] |
| 0.01 to 0.1 | CCc1cc(CC(NC(=O)N2CCC(N3Cc4ccccc4NC3=O)CC2)c2nnnn2C)cc2c(C)n[nH]c12 (racemic) [Example 17, (±)-4-(2-Oxo-1,4-dihydro-2H-quinazolin-3-yl)-piperidine-1-carboxylic acid [2-(7-ethyl-3-methyl-1H-indazol-5-yl)-1-(1-methyl-1H-tetrazol-5-yl)-ethyl]-amide] |
| 0.01 to 0.1 | CCc1cc(CC(NC(=O)N2CCC(N3Cc4ccccc4NC3=O)CC2)c2nnnn2CC(=O)c2ccccc2)cc2c(C)n[nH]c12 (racemic) [Example 21, (±)-4-(2-Oxo-1,4-dihydro-2H-quinazolin-3-yl)-piperidine-1-carboxylicacid [2-(7-ethyl-3-methyl-1H-indazol-5-yl)-1-[1-(2-oxo-2-phenyl-ethyl)-1H-tetrazol-5-yl)-ethyl]-amide] |
| 0.01 to 0.1 | CCc1ccnc(C(CC(=O)N2CCC(N3Cc4ccccc4NC3=O)CC2)Cc2cc(C)c3[nH]ncc3c2)c1 (racemic) [Example 22, (±)-3-(1-(3-(4-Ethylpyridin-2-yl)-4-(7-methyl-1H-indazol-5-yl)butanoyl)piperidin-4-yl)-3,4-dihydroquinazolin-2(1H)-one] |
| 0.01 to 0.1 | Cc1cc(CC(CC(=O)N2CCC(N3Cc4cccc(F)c4NC3=O)CC2)c2ccccn2)cc2cn[nH]c12 (racemic) [Example 23, (±)-8-Fluoro-3-(1-(4-(7-methyl-1H-indazol-5-yl)-3-(pyridin-2-yl)butanoyl)piperidin-4-yl)-3,4-dihydroquinazolin-2(1H)-one] |
| 0.01 to 0.1 | Cc1cc(CC(CC(=O)N2CCC(c3cc4ccccc4[nH]c3=O)CC2)c2ccccn2)cc2cn[nH]c12 (racemic) [Example 24, (±)-3-(1-(4-(7-Methyl-1H-indazol-5-yl)-3-(pyridin-2-yl)butanoyl)piperidin-4-yl)quinolin-2(1H)-one] |
| < 0.01 | Cc1cccnc1C(CC(=O)N1CCC(N2Cc3ccccc3NC2=O)CC1)Cc1cc(C)c2[nH]ncc2c1 (racemic) [Example 25, (±)-3-(1-(4-(7-Methyl-1H-indazol-5-yl)-3-(3-methylpyridin-2-yl)butanoyl)piperidin-4-yl)-3,4-dihydroquinazolin-2(1H)-one] |
| 0.01 to 0.1 | Cc1ccc(C(CC(=O)N2CCC(N3Cc4ccccc4NC3=O)CC2)Cc2cc(C)c3[nH]ncc3c2)nc1 (racemic) [Example 26, (±)-3-(1-(4-(7-Methyl-1H-indazol-5-yl)-3-(5-methylpyridin-2-yl)butanoyl)piperidin-4-yl)-3,4-dihydroquinazolin-2(1H)-one] |
| < 0.01 | Cc1cc(CC(CC(=O)N2CCC(N3Cc4ccccc4NC3=O)CC2)c2ccc(CO)cn2)cc2cn[nH]c12 (racemic) [Example 27, (±)-3-(1-(3-(5-(Hydroxymethyl)pyridin-2-yl)-4-(7-methyl-1H-indazol-5-yl)butanoyl)piperidin-4-yl)-3,4-dihydroquinazolin-2(1H)-one] |

| Compound | IC50 [µM] |
| --- | --- |
| CCc1cc(CC(NC(=O)N2CCC(N3Cc4ccccc4NC3=O)CC2)c2nnn(CC(=O)c3ccccc3)n2)cc2c(C)n[nH]c12 (racemic) [Example 20, (±)-4-(2-Oxo-1,4-dihydro-2H-quinazolin-3-yl)-piperidine-1-carboxylic acid [2-(7-ethyl-3-methyl-1H-indazol-5-yl)-1-(2-oxo-2Phenethyl-2H-tetrazol-5-yl)-ethyl]-amide] | 0.01 to 0.1 |
